Data: PMC9510126, “Hydrophobicity is a key determinant in the activity of arginine-rich cell penetrating peptides” (Scientific Reports, 2022)
Ends that are not written are not given here. * marks the point of attachment. carboxyfluorescein = carboxyfluorescein fluorophore coupled to the lysine ε-amine; DEAC = CCN(CC)c1ccc2cc(C(=O)*)c(=O)oc2c1

Key:
[1] = RP-18 TLC hydrophobicity (1-Rf) of Ac-X-NH2 analogs; type: physicochemical; details: RP18 TLC, 40% acetonitrile / 60% PBS (10 mM phosphate buffer), pH 4 vs pH 8
Method: In order to assess the hydrophobicity contributed by each X group, the peptides were first analyzed by reverse phase HPLC using a C18 column, using gradients of buffer A (water/TFA 99.9:0.1) and buffer B (acetonitrile/water/TFA 89.9:10:0.1 v:v:v) (gradient of 0–40% B over 20 min). […] All d(X)TAT peptides eluted over a range of 10–35% acetonitrile. […] One caveat of this approach is that the buffer system used for peptide analysis is pH 2 (due to the presence of TFA, required to protonate residue side chains). However, pH 2 is not representative of the pH that CPPs may be exposed to when in contact with cells, either pH 7.2 outside the plasma membrane, or pH between 6.5 and 4.5 while inside acidic endosomes. In order to establish the relative hydrophobicities of d(X)TAT peptides at these pHs, we sought to use other techniques, including thin layer chromatography using C18, aluminum oxide or silica stationary phases. Unfortunately, the arginine-rich peptides could not be separated on these systems. To solve this problem, each individual X group was synthesized, using acetylated and amidated N and C-terminal positions to mimic the peptide backbone found in the d(X)TAT constructs (Fig. 1A, Figure S11). Each Ac-X-NH2 group was analyzed by HPLC and by RP18 TLC, using 40% acetonitrile and 60% PBS as mobile phase. The HPLC elutions of Ac-X-NH2 correlated with the HPLC elutions of their respective d(X)TAT counterparts (Fig. 1C). Similarly, the relative hydrophobicities of Ac-X-NH2 determined by TLC (measured as 1-Rf) at pH 4 or 8 were in good agreement with the results obtained by HPLC (Fig. 1D). […] In the case of DEAC, the protonation state of the fluorophore has, to our knowledge, not been characterized.
Hydrophobic substituents (10 µL) were developed on aluminum-backed F254 RP-18 TLC plates (EMD Millipore). Plates were cut into 6 cm × 6 cm squares and developed in 40% acetonitrile/60% 10 mM phosphate buffer first along one axis at pH 2.0, then along the second axis at pH 7.4. Peptide substituents that could not be easily identified under long-wave UV light were stained with iodine for 10–20 min. Retention factors (Rf) were calculated based on the distance traveled by each compound between the starting spotted location and the final solvent front location.

[2] = tested on: MDA-MB-231 cells; experiment: Staining of endosomes with LysoTracker (puncta per cell); type: cell-based, human; details: for lysotracker stained puncta, control agents: MDA-MB-231, LLOME 1 mM 10 min, bafilomycin 1 µM 4 h; for lysotracker-positive puncta per cell 12 h after incubation: MDA-MB-231, 1 h with peptide 1.5 μM, then 12 h in DMEM; for lysotracker stained endosomes (puncta per cell) immediately after incubation: MDA-MB-231, 1 h with peptide (X = K(Ac), WW, FFLIP at 10, 1.5, 1.5 μM), LysoTracker Green DND-26 500 nM 5 min, biological triplicates
Method: Given that hydrophobicity of the d(X)TAT peptides appears to contribute to their membrane permeation activities, we next sought to establish whether this relationship could be recapitulated with membrane models, i.e. lipid bilayers. To establish which membrane system to test, we first aimed to test whether d(X)TAT peptides generally recapitulate the mechanism of cell entry previously determined with dfTAT. For this purpose, the delivery of TMR-k5 was performed in cells transfected with dominant-negative (DN) rab7(T22N), a protein that disrupts trafficking from early endosomes to late endosomes[29],[30]. For these experiments, d(WW)TAT and d(FFLIP)TAT were chosen as two “high activity/hydrophobicity” d(X)TAT representatives. […] In this case, approximately 5% of cells remained positive for TMR-k5 nuclear staining. […] To further probe the cell penetration mechanism, the number of endosomal organelles stained by Lysotracker in cells before and after delivery was quantified. The rationale behind this assay is that lysotracker accumulates in acidified organelles, typically late endosomes and lysosomes, that endosomal membrane leakage causes an increase of endosomal pH (presumably via leakage of luminal H^+ into the cytosol), and that, consequently, endosomes rendered potentially leaky by d(X)TAT peptides will not be stained by lysotracker.
For the quantification of acidic vesicles, cells were treated with LysoTracker Green DND-26 (500 nM) for 5 min. Alternatively, cells were pretreated with L-Leu-L-Leu methyl ester (LLOME; Sigma-Aldrich) incubated at 1 mM for 10 min, or bafilomycin (Sigma-Aldrich) at 1 µM for 4 h, and then stained with LysoTracker. Likewise, cells were pretreated with d(X)TAT peptides (X = K(Ac), WW, or FFLIP at 10, 1.5, and 1.5 μM) for 1 h. Cells were then washed an stained with LysoTracker immediately or after 12 h incubation in DMEM. For all conditions, fluorescence microscopy images were acquired using the 100× objective on an Olympus IX-81 microscope. ImageJ was used to calculate the number of LysoTracker-stained puncta per cell, as well as the area of each individual puncta. This analysis was performed for 50 cells imaged for each condition and reproduced in biological triplicates.

[3] = tested on: MDA-MB-231 cells; experiment: Delivery of TMR-k5 probe into live cells (nuclear staining); type: cell-based, human; details: 1 h, biological triplicates; for TMR-k5 delivery activity (cells with TMR-k5 nuclear staining): MDA-MB-231, d(X)TAT at various concentrations + TMR-k5 20 μM, fluorescence microscopy; for d(X)TAT concentration at which delivery is achieved in a high percentage of cells: MDA-MB-231, TMR-k5 20 μM
Excerpt: To test the relative delivery efficiency of the d(X)TAT peptides, the cell lines MDA-MB-231 (epithelial-like, human breast cancer, spindle-shaped) and Neuro-2a (mouse neuroblastoma with neuronal and amoeboid stem cell morphology) were chosen. These cell lines are routinely used in cancer research, neuroscience, and toxicology. In the context of this study, we rationalized that the distinct differences in origin and characteristics between MDA-MB-231 and Neuro-2a properties may be useful to assess the generality of the results obtained. MDA-MB-231 or Neuro-2a cells were incubated with d(X)TAT peptides at various concentrations and TMR-k5 (20 μM) for 1 h. Cells were then washed, incubated with the DNA stain Hoechst and the live/dead marker SYTOX green (or SYTOX blue), and imaged by fluorescence microscopy. The localization of TMR-k5 in individual nuclei was then assessed by measuring the overlap between TMR and Hoechst signals (Fig. 2, Figure S13). […] This is because, in our experience, dfTAT and dfTAT analogs display a threshold behavior where, below a certain endosomal concentration, endosomal leakage is not achieved. In contrast above this threshold most late endosomes are permeabilized. […] Our rationale was therefore to titrate cells with different concentrations of d(X)TAT agents, monitor how many cells display cytosolic/nuclear delivery of TMR-k5, and compare the different d(X)TAT peptides.
MDA-MB-231 and Neuro2a cells obtained from ATCC (breast cancer-derived epithelial) were cultured in humidified atmosphere at 5% CO2 and 37 °C. Cells were seeded in plastic 48-well plates (Fisher) for quantitative analysis or 8-well Labtek II plates (Fisher) for qualitative imaging at 100× magnification. The cells were grown to 80–90% confluency in a 37 °C humidified atmosphere containing 5% CO2. Cells were washed three times with Leibovitz’s L15 media (L15) (Fisher). Cells were then incubated with peptide and 20 µM of the TMR-k5 pentalysine probe at 37 °C for 1 h. This was followed by washing the cells three times with L15 supplemented with heparin (Sigma-Aldrich) (1 mg/mL) and an extra L15 wash. […] Additionally, the cell permeable dye Hoechst 33342 (Thermo Fisher Scientific o) was used for nuclear staining. Cells were imaged using an EVOS FL Auto 2 inverted microscope (Thermo Fisher Scientific). The microscope is equipped with a heating chamber maintained at 37 °C. Images were acquired using bright field imaging and five fluorescence filter sets: CFP (Ex = 436 ± 10 nm, Em = 480 ± 20 nm), RFP (Ex = 560 ± 20 nm, Em = 630 ± 35 nm), FITC (Ex = 488 ± 10 nm Em = 520 ± 20 nm), DAPI (Ex = 350 ± 50 nm, Em = 460 ± 25 nm), […]. For image viewing and processing individual images, the Celleste 4.0 software (Thermo Fisher Scientific) was used. Nuclear regions in 20× images where identified using Hoechst staining (the quantification process is described in Figure S13). The intensity of these objects in the TMR channel was then determined using the Celleste software. Cells stained by the SYTOX or DRAQ dyes were considered dead and not counted as positive for delivery. Cells displaying a nuclear TMR-k5 fluorescence above the fluorescence threshold determined for TMR-k5 alone were considered positive for delivery (if excluding SYTOX or DRAQ7 stain, and if visually showing stained nucleoli for confirmation of intracellular localization). The percentage of cells positive for TMR-k5 nuclear staining was then calculated, using Hoechst-stained cells to count the total number of cells present. […] Instead, this assay quantifies the number of cells in which the nuclear fluorescence of TMR-k5 is above a detection threshold. This threshold is dependent on the microscope, imaging conditions, and the concentration of TMR-k5 used during incubation (Figure S13). The reproducibility of all the experiments was assessed by performing experiments with independent batches of cell cultures on three different days (i.e., biological triplicates). […]

[4] = tested on: Neuro-2a cells; experiment: Delivery inhibition with dominant negative rab7 or CytoD; type: cell-based, mouse; details: for cells with TMR-k5 delivery, EGFP-DN-rab7 transfected / nuclear staining of delivered TMR-k5 in cells transfected with EGFP-DN-rab7: Neuro-2a (Fig. 4A), TMR-k5 20 μM, 1 h; for nuclear staining of delivered TMR-k5 in cells transfected with EGFP-DN-rab7: biological triplicates; for cells positive for TMR-k5 nuclear staining in the presence of cytochalasin D / delivery of TMR-k5 in the presence of cytochalasin D: cytoD 20 μM, 30 min pre-incubation and present during 1 h delivery

Compound: CC(=O)N[C@@H](Cc1ccccc1)C(N)=O [Ac-F-NH2]
- pH dependence of TLC retention (1-Rf) [1]: independent of pH

Compound: CCN(CC)c1ccc2cc(C(=O)NCCCCC(NC(C)=O)C(N)=O)c(=O)oc2c1 (stereo not drawn) [Ac-K(DEAC)-NH2]
- pH dependence of TLC retention (1-Rf) [1]: higher hydrophobicity at pH 4 than at pH 8

Compound: CC(=O)N[C@@H](Cc1c[nH]c2ccccc12)C(N)=O [Ac-W-NH2]
- pH dependence of TLC retention (1-Rf) [1]: independent of pH

Compound: CC(=O)N[C@@H](Cc1ccc(O)cc1)C(N)=O [Ac-Y-NH2]
- pH dependence of TLC retention (1-Rf) [1]: independent of pH

Compound: COC(=O)[C@H](CC(C)C)NC(=O)[C@@H](N)CC(C)C [LLOME, L-Leucine-L-Leucine methyl ester, reference compound]
- lysotracker stained puncta, control agents [2]: reduced the number of lysotracker stained puncta

Compound: CO/C1=C\C(C)=C\[C@@H](C)[C@@H](O)[C@@H](C)C/C(C)=C/C=C/[C@H](OC)[C@@H]([C@@H](C)[C@@H](O)[C@H](C)[C@@]2(O)C[C@@H](O)[C@H](C)[C@@H](C(C)C)O2)OC1=O [bafilomycin, reference compound]
- lysotracker stained puncta, control agents [2]: reduced the number of lysotracker stained puncta

Compound: d(F)TAT: disulfide dimer of CXRKKRRQRRRG with X = F (CFRKKRRQRRRG-NH2; also: disulfide dimer)
- TMR-k5 delivery activity (cells with TMR-k5 nuclear staining) [3]: little to no TMR-k5 delivery is detected

Compound: d(FFLIP)TAT: disulfide dimer of CXRKKRRQRRRG with X = FFLIP (penetration accelerating sequence, Pas)
- d(X)TAT concentration at which delivery is achieved in a high percentage of cells [3]: < 3 µM
- cells with TMR-k5 delivery, EGFP-DN-rab7 transfected [4]: 20%
- nuclear staining of delivered TMR-k5 in cells transfected with EGFP-DN-rab7 [4]: markedly reduced
- cells positive for TMR-k5 nuclear staining in the presence of cytochalasin D [4]: approximately 5%
- delivery of TMR-k5 in the presence of cytochalasin D [4]: significantly reduced
- lysotracker-positive puncta per cell 12 h after incubation [2]: restored to control level
- lysotracker stained endosomes (puncta per cell) immediately after incubation [2]: caused a reduction in lysotracker stained endosomes

Compound: d(K(DEAC))TAT: disulfide dimer of CXRKKRRQRRRG with X = lysine conjugated to 7-diethylaminocoumarin-3-carboxylic acid (CK(DEAC)RKKRRQRRRG-NH2; also: disulfide dimer)
- d(X)TAT concentration at which delivery is achieved in a high percentage of cells [3]: < 3 µM

Compound: d(K(Fl))TAT: disulfide dimer of CXRKKRRQRRRG with X = lysine conjugated to carboxyfluorescein (CK(carboxyfluorescein)RKKRRQRRRG-NH2; also: disulfide dimer)
- d(X)TAT concentration at which delivery is achieved in a high percentage of cells [3]: > 5 µM

Compound: d(LL)TAT: disulfide dimer of CXRKKRRQRRRG with X = LL
- d(X)TAT concentration at which delivery is achieved in a high percentage of cells [3]: > 5 µM

Compound: d(W)TAT: disulfide dimer of CXRKKRRQRRRG with X = W (CWRKKRRQRRRG-NH2; also: disulfide dimer)
- TMR-k5 delivery activity (cells with TMR-k5 nuclear staining) [3]: little to no TMR-k5 delivery is detected

Compound: d(WW)TAT: disulfide dimer of CXRKKRRQRRRG with X = WW
- d(X)TAT concentration at which delivery is achieved in a high percentage of cells [3]: < 3 µM
- cells with TMR-k5 delivery, EGFP-DN-rab7 transfected [4]: 20%
- nuclear staining of delivered TMR-k5 in cells transfected with EGFP-DN-rab7 [4]: markedly reduced
- cells positive for TMR-k5 nuclear staining in the presence of cytochalasin D [4]: approximately 5%
- delivery of TMR-k5 in the presence of cytochalasin D [4]: significantly reduced
- lysotracker-positive puncta per cell 12 h after incubation [2]: restored to control level
- lysotracker stained endosomes (puncta per cell) immediately after incubation [2]: caused a reduction in lysotracker stained endosomes

Compound: d(Y)TAT: disulfide dimer of CXRKKRRQRRRG with X = Y (CYRKKRRQRRRG-NH2; also: disulfide dimer)
- TMR-k5 delivery activity (cells with TMR-k5 nuclear staining) [3]: little to no TMR-k5 delivery is detected

Compound: d(YFIL)TAT: disulfide dimer of CXRKKRRQRRRG with X = YFIL
- d(X)TAT concentration at which delivery is achieved in a high percentage of cells [3]: < 3 µM
